Test results as given in patent US4985445A, “Cancer cell metastasis inhibitors and novel compounds” (Meiji Seika Kaisha, Ltd., priority 1988, dated 1991).

What was measured:
[1] = system: murine tumor cell line L 929; assay: Cytotoxic activity against L 929 (growth observed with inverted microscope, 4 days); assay type: cell-based; details: for Growth: 4 days;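 as to growth: + means growth and ± means marked inhibition and - means cell death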
Experimental: The B16 subline of high pulmonary metastatic potential and murine tumor cell line L 929 were cultured in DME medium supplemented with 10% bovine fetal serum at 37° C. in the presence of 5% CO2.
The B16 subline of high pulmanary metastatic potential and murine tumor cell line L 929 were cultured in DME medium supplemented with 10% bovine fetal serum at 37° C. in the presence of 5% CO2.

[2] = system: B16 subline of high pulmonary metastatic potential; assay: Inhibition of pulmonary metastasis of B16 subline pretreated with compound and injected i.v. into BDF1 mice; assay type: in vivo, murine; mouse BDF1; details: for Pulmonary Metastasis, Mouse 1 / Pulmonary Metastasis, Mouse 2 / Pulmonary Metastasis, Mouse 3 / Pulmonary Metastasis (Mean ± Standard Deviation): 14 days; for Pulmonary Metastasis (Mean ± Standard Deviation): None 32 ± 3.0; for Pulmonary Metastasis, %: None = 100
Experimental: Based on the method described priviously (Method in Cancer Research, 15, 399-439, 1978), a subline of high metastatic potential (high pulmonary colonization) was selected from murine melanoma B16 by repeating the i.v. transplantation of the tumor cells in BDF1 mice and the isolation of pulmonary metastatic clones.
Evaluation of the metastasis inhibiting activity was performed based on the method described previously (Proc. Natl Acad. Sci. USA, 83, 1752-1756, 1986, Cancer Research, 46, 858-862, 1986).
Firstly, the B16 subline of high metastatic potential was inoculated into Dulbecco's ME medium (DME medium) supplemented with 10% bovine fetal serum and the compound represented by general formula (I) described above was added thereto.
The B16 subline of high pulmonary metastatic potential was inoculated into DME medium supplemented with 10% bovine fetal serum and 30, 100 or 300 μg/ml of N (3-phenylpropyl)-1-deoxynojirimycin was added thereto followed by incubation at 37° C. for 3 days in the presence of 5% CO2.
Inhibition of metastasis was examined in a manner similar to Test Example 2 except that N-(3-phenyl-2-propenyl)-1-deoxy-nojirimycin and N-(3-p-chlorophenyl-3-methyl-2-propenyl)-1-deoxynojirimycin were used instead of N-(3-phenylpropyl)-1-deoxynojirimycin in Test Example 2. In this test example, however, 2.5×10^5 cells each of the B16 subline were transplanted to 3 mice for each group.
The B16 subline of high pulmonary metastatic potential was inoculated into DME medium supplemented with 10% bovine fetal serum and 30 μg/ml of N-(4-phenoxy-trans-2-butenyl)-1-deoxynojirimycin was added thereto followed by incubation at 37° C. for 3 days in the presence of 5% CO2. […] The number of colonies of the B16 subline formed on the surface of and in the lung was counted.
Inhibition of metastasis was examined in a manner similar to Test Example 5 except that N-(2-phenoxyethyl)-1-deoxynojirimycin was used instead of N-(4-phenoxy-trans-2-butenyl)-1-deoxynojirimycin in Test Example 5.
The B16 sibline of high pulmonary metastatic potential was inoculated into DME medium supplemented with 10% bovine fetal serum and 10 μg/ml of D-glucaro-δ-lactam calcium salt was added thereto followed by incubation at 37° C. for 3 days in the presence of 5% CO2. […] The number of the colonies formed on the surface of and in the lung was counted.
Inhibition of metastasis was examined in a manner similar to Test Example 8 except that D-glucaro-δ-lactam methyl ester and D-glucaro-δ-lactam ethyl ester were used instead of D-glucaro-δ-lactam calcium salt in Test Example 8.
The B16 subline of high pulmonary metastatic potential was inoculated into DME medium supplemented with 10% bovine fetal serum and 10 μg/ml of 2,6-di-O-(acetylsalicyloyl)-D-gluco-δ-lactam was added thereto followed by incubation at 37° C. for 3 days in the presence of 5% CO2.
The B16 subline of high pulmonary metastatic potential was inoculated into DME medium supplemented with 10% bovine fetal serum and 30 μg/ml of 6-O-triphenylmethyl-D-gluco-δ-lactam was added thereto followed by incubation at 37° C. for 3 days in the presence of 5% CO2.
The B16 subline of high pulmonary metastatic potential was inoculated into DME medium supplemented with 10% bovine fetal serum and 30 μg/ml of 1-deoxynojirimycin was added thereto followed by incubation at 37° C. for 3 days in the presence of 5% CO2.

With `OC[C@@H]1[C@@H](O)[C@H](O)[C@@H](O)CN1CCCc1ccccc1` [N-(3-Phenylpropyl)-1-deoxynojirimycin, N-(3-phenylpropyl)-1-deoxynojirimycin] the “Cytotoxicity (in words)” value ([1]; L 929, even at a concentration as high as 100 μg/ml) was “did not show marked cytotoxicity”, the Growth ([1]; Table 2, L 929, 0.5 μg/ml) was “+” and the Growth ([1]; Table 2, L 929, 5 μg/ml) was “+”. For the same molecule, the Growth ([1]; Table 2, L 929, 50 μg/ml) was “+”, the Growth ([1]; Table 2, L 929, 100 μg/ml) was “+” and the “Inhibition of metastasis to the lungs (in words)” value ([2]; B16 subline, BDF1 mice) was “shows decrease in the number of colonies”. For the same molecule, the “Pulmonary Metastasis, Mouse 1” value ([2]; Table 3, 30 μg/ml) was 9 no, the “Pulmonary Metastasis, Mouse 2” value ([2]; Table 3, 30 μg/ml) was 22 no and the “Pulmonary Metastasis, Mouse 3” value ([2]; Table 3, 30 μg/ml) was 37 no. The “Pulmonary Metastasis (Mean ± Standard Deviation)” value ([2]; Table 3, 30 μg/ml) was 22.7 ± 14.0 no, the “Pulmonary Metastasis, %” value ([2]; Table 3, 30 μg/ml) was 68.8% and the “Pulmonary Metastasis, Mouse 1” value ([2]; Table 3, 100 μg/ml) was 4 no. The “Pulmonary Metastasis, Mouse 2” value ([2]; Table 3, 100 μg/ml) was 4 no, the “Pulmonary Metastasis, Mouse 3” value ([2]; Table 3, 100 μg/ml) was 6 no and the “Pulmonary Metastasis (Mean ± Standard Deviation)” value ([2]; Table 3, 100 μg/ml) was 4.7 ± 1.2 no. For the same molecule, the “Pulmonary Metastasis, %” value ([2]; Table 3, 100 μg/ml) was 14.7%, the “Pulmonary Metastasis, Mouse 1” value ([2]; Table 3, 300 μg/ml) was 0 no and the “Pulmonary Metastasis, Mouse 2” value ([2]; Table 3, 300 μg/ml) was 0 no. The “Pulmonary Metastasis, Mouse 3” value ([2]; Table 3, 300 μg/ml) was 3 no, the “Pulmonary Metastasis (Mean ± Standard Deviation)” value ([2]; Table 3, 300 μg/ml) was 1 ± 1.7 no and the “Pulmonary Metastasis, %” value ([2]; Table 3, 300 μg/ml) was 3.1%.
